From patent publication US11851440B2, “Modulators of eukaryotic initiation factor 2B, compositions and methods” (Denali Therapeutics Inc., priority 2017, dated 2023)
Read-outs that look alike come from different tables or passages of the source.

How the values were obtained:
[1] = molecular target: T1, P-gp (P-glycoprotein, MDR1) (Homo sapiens, UniProt P08183); test: MDCKII-MDR1 permeability, bidirectional assay; assay type: in vitro ADME; details: dog, MDCK-MDR1, MDCKII-MDR1 cells, HBSS+12.5 mM HEPES pH 7.4
T1 construct: host or cells: MDCKII-MDR1 cells (pre-plated, Corning HTS Transwell-96)
Experimental: The blood brain barrier (BBB) separates circulating blood from the extracellular fluid of the central nervous system (CNS). […] A bidirectional assay (Apical to Basolateral (A→B) and Basolateral to Apical (B→A)), in the absence and in the presence of GF120918 (a P-gp inhibitor) was conducted using pre-plated MDCKII-MDR1 cells (Corning HTS Transwell-96) obtained from SOLVO Biotechnology. The assay was run at 3 μM for 90 min (minutes) in triplicate using a HBSS+12.5 mM HEPES pH 7.4 transport buffer. Following incubation of samples from donor and receiver, wells were removed and measured by LC-MS/MS. Samples were extracted by protein precipitation with acetonitrile containing an appropriate internal standard (IS) having a known mass and molecular weight. The precipitate was centrifuged for 10 min at 3000 rpm (revolutions per minute). The supernatants were then collected, diluted if necessary, and injected on to the LC-MS/MS system. Specific parent/daughter ion pairs for the test article and IS were used to selectively measure the test articles. Papp (apparent permeability expressed in nm/sec [nanometer/second]) values were calculated according to the following equation: […]
Where dQ/dt is the permeability rate, C0 is the initial concentration in the donor solution (expressed as IS ratio), A and B are the surface areas of the filter (the surface area of the cell monolayer).
Monolayer efflux ratios (ER) were derived using the following equation: […]

[2] = tested on: ISR pathway (ATF4 translation); test: ATF4 Nano Luciferase reporter integrated stress response (ISR) assay in H4 ATF4-NLuc cells; details: compound 30 minutes, then 50 um sodium arsenite for 6 hours, luminescence readout
[3] = Homo sapiens, H4 ATF4-NLuc (clone 17) cells
[4] = Homo sapiens, read-out: Activity (IC50), H4 ATF4-NLuc (clone 17) cells

T1 sequence (P08183 whole entry): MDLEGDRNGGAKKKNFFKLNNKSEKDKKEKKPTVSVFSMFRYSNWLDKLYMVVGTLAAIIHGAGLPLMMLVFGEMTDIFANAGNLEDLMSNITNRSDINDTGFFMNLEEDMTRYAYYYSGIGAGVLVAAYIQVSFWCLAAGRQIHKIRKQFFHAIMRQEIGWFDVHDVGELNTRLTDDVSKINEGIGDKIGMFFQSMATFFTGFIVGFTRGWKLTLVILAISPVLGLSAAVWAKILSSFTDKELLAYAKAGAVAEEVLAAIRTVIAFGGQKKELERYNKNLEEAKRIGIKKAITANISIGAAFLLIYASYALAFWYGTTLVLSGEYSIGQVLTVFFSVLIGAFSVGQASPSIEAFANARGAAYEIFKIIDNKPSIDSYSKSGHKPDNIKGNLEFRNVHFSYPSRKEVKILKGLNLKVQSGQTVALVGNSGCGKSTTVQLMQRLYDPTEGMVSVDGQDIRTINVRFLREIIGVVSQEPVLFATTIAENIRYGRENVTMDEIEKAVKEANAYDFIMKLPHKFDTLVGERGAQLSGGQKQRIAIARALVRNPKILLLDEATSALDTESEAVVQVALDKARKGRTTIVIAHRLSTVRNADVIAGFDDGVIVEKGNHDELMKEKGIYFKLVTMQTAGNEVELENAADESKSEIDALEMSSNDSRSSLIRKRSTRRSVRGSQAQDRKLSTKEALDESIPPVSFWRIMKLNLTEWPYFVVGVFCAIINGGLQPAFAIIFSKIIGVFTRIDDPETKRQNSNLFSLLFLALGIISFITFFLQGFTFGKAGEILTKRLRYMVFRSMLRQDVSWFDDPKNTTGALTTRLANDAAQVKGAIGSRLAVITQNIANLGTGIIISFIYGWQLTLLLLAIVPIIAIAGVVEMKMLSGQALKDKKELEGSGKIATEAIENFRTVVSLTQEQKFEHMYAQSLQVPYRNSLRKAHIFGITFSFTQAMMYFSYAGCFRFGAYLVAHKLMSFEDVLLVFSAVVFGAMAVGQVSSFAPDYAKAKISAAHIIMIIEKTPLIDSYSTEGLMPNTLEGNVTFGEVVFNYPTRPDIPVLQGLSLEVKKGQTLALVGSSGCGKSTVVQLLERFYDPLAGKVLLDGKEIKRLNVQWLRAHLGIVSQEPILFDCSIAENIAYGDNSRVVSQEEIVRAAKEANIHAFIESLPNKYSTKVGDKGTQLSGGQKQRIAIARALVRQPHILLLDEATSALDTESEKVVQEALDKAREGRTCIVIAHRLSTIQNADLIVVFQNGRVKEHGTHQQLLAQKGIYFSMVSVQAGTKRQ

Compound | IC50 [2, 4] [nM] | other results
O=C(COc1ccc(Cl)c(F)c1)NC12CC(NCCO[C@H]3C[C@@H](OC(F)(F)F)C3)(C1)C2 [Example 133, 2-(4-chloro-3-fluoro-phenoxy)-N-[1-[2-[cis-3-(trifluoromethoxy)cyclobutoxy]ethylamino]-3-bicyclo[1.1.1]pentanyl]acetamide] | < 1000 | efflux ratio at 90 min, 3 μM [1]: ≤ 2.5; IC50 [2, 3]: 18.1 nM
O=C(CO[C@H]1C[C@@H](OC(F)(F)F)C1)NC12CC(c3cc(-c4ccc(Cl)c(F)c4)no3)(C1)C2 [Example 248, N-(3-(3-(4-chloro-3-fluorophenyl)isoxazol-5-yl)bicyclo[1.1.1]pentan-1-yl)-2-(3-cis-(trifluoromethoxy)cyclobutoxy)acetamide] | < 1000 | efflux ratio at 90 min, 3 μM [1]: ≤ 2.5; IC50 [2, 3]: 28.2 nM
O=C(CO[C@H]1C[C@@H](OC(F)(F)F)C1)NC12CC(n3cnc(-c4ccc(Cl)cc4)c3)(C1)C2 [Example 139, N-(3-(4-(4-chlorophenyl)-1H-imidazol-1-yl)bicyclo[1.1.1]pentan-1-yl)-2-(3-cis-(trifluoromethoxy)cyclobutoxy)acetamide] | < 1000 | efflux ratio at 90 min, 3 μM [1]: ≤ 2.5; IC50 [2, 3]: 4.3 nM
O=C(CC[C@H]1C[C@@H](OC(F)(F)F)C1)NC12CC(c3nnc(C4CC(OC(F)(F)F)C4)o3)(C1)C2 (stereo partly drawn) [Example 75, 3-[3-cis-(trifluoromethoxy)cyclobutyl]-N-[3-[5-[3-cis-(trifluoromethoxy)cyclobutyl]-1,3,4-oxadiazol-2-yl]-1-bicyclo[1.1.1]pentanyl]propanamide] | 1000 to 10000 | 
O=C(NC12CC(c3nnc([C@H]4C[C@@H](OC(F)(F)F)C4)o3)(C1)C2)c1cn2cc(F)ccc2n1 [Example 180] | 1000 to 10000 | 
C[C@H]1C[C@@H]1c1nnc(C23CC(NC(=O)COc4ccc(Cl)c(F)c4)(C2)C3)o1 (single isomer, unassigned) [Example 113, 2-(4-chloro-3-fluoro-phenoxy)-N-[1-[5-[2-methylcyclopropyl]-1,3,4-oxadiazol-2-yl]-3-bicyclo[1.1.1]pentanyl]acetamide] |  | IC50 ([2]; read-out: Activity (IC50), H4 ATF4-NLuc (clone 17) cells): < 1000 nM
O=C(COc1ccc(Cl)c(F)c1)NC12CC(c3nnc(CCOC(F)(F)F)o3)(C1)C2 [Example 55] | < 1000 | 
O=C(NC12CC(c3nnc([C@H]4C[C@@H](OC(F)(F)F)C4)o3)(C1)C2)c1cc2ccc(Cl)cn2n1 [Example 171] | < 1000 | 
O=C(CO[C@H]1C[C@@H](OC(F)(F)F)C1)NC12CC(c3nc4cc(Cl)ccc4o3)(C1)C2 [Example 234] | 1000 to 10000 | 
O=C(COc1ccc(Cl)c(F)c1)NC12CC(c3nnc(C4C[C@H]4COC(F)(F)F)o3)(C1)C2 (mixture of isomers) [Example 80, 2-(4-chloro-3-fluoro-phenoxy)-N-[3-[5-[2-trans-(trifluoromethoxymethyl)cyclopropyl]-1,3,4-oxadiazol-2-yl]-1-bicyclo[1.1.1]pentanyl]acetamide] | < 1000 | 
O=C(COc1ccc(Cl)c(F)c1)NC12CC(c3nnc(C4CN(CC(F)F)C4)o3)(C1)C2 [Example 130, 2-(4-chloro-3-fluoro-phenoxy)-N-[3-[5-[1-(2,2-difluoroethyl)azetidin-3-yl]-1,3,4-oxadiazol-2-yl]-1-bicyclo[1.1.1]pentanyl]acetamide] | < 1000 | 
O=C(COc1ccc(C(F)(F)F)nc1)NC12CC(c3nnc([C@H]4C[C@@H](OC(F)(F)F)C4)o3)(C1)C2 [Example 174] | < 1000 | 
O=C(CO[C@H]1C[C@@H](OC(F)(F)F)C1)NC12CC(c3nnc(COc4ccc(Cl)c(F)c4)o3)(C1)C2 [Example 41, N-[1-[5-[(4-chloro-3-fluoro-phenoxy)methyl]-1,3,4-oxadiazol-2-yl]-3-bicyclo[1.1.1]pentanyl]-2-cis-[3-(trifluoromethoxy)cyclobutoxy]acetamide] | < 1000 | 
O=C(COc1cccc(OC(F)(F)F)c1)NC12CC(c3nnc([C@H]4C[C@@H](OC(F)(F)F)C4)o3)(C1)C2 [Example 173] | < 1000 | 
O=C(CO[C@H]1C[C@@H](OC(F)(F)F)C1)NC12CC(n3cnc(-c4c(F)cc(Cl)cc4F)c3)(C1)C2 [Example 269] | < 1000 | IC50 [2, 3]: 7.5 nM
O=C(COC1CN(CC(F)(F)F)C1)NC12CC(c3nnc([C@H]4C[C@@H](OC(F)(F)F)C4)o3)(C1)C2 [Example 116, 2-[1-(2,2,2-trifluoroethyl)azetidin-3-yl]oxy-N-[3-[5-[3-cis-(trifluoromethoxy)cyclobutyl]-1,3,4-oxadiazol-2-yl]-1-bicyclo[1.1.1]pentanyl]acetamide] | 1000 to 10000 | 
O=C(NC12CC(c3nnc([C@H]4C[C@@H](OC(F)(F)F)C4)o3)(C1)C2)OC[C@H]1C[C@@H](OC(F)(F)F)C1 [Example 88, [3-cis-(trifluoromethoxy)cyclobutyl]methyl N-[3-[5-[3-cis-(trifluoromethoxy)cyclobutyl]-1,3,4-oxadiazol-2-yl]-1-bicyclo[1.1.1]pentanyl]carbamate] | < 1000 | 

Second part, led by results:

IC50 [2, 4] [nM] | Compound | other results
< 1000 | O=C(COc1ccc(Cl)c(F)c1)NC12CC(c3nnc([C@@H]4C[C@H]4COC(F)(F)F)o3)(C1)C2 (single isomer, unassigned) [Example 81, 2-(4-chloro-3-fluoro-phenoxy)-N-[3-[5-[2-trans-(trifluoromethoxymethyl)cyclopropyl]-1,3,4-oxadiazol-2-yl]-1-bicyclo[1.1.1]pentanyl]acetamide] | efflux ratio at 90 min, 3 μM [1]: ≤ 2.5; IC50 [2, 3]: 11.8 nM
< 1000 | O=C(CO[C@H]1C[C@@H](OC(F)(F)F)C1)NC12CC(c3cnn(-c4ccc(Cl)cc4)c3)(C1)C2 [Example 263] | 
< 1000 | O=C(CO[C@H]1C[C@@H](OC(F)(F)F)C1)NC12CC(n3cnc(-c4ccc(F)cc4F)c3)(C1)C2 [Example 135] | 
< 1000 | O=C(NC12CC(c3nnc([C@H]4C[C@@H](OC(F)(F)F)C4)o3)(C1)C2)c1ccc2ccccc2n1 [Example 187] | 
< 1000 | N#CC1CC(c2nnc(C34CC(NC(=O)COc5ccc(Cl)c(F)c5)(C3)C4)o2)C1 (stereo not shown) [Example 29, 2-(4-chloro-3-fluoro-phenoxy)-N-[1-[5-(3-cyanocyclobutyl)-1,3,4-oxadiazol-2-yl]-3-bicyclo[1.1.1]pentanyl]acetamide] | 
< 1000 | O=C(COc1ccc(Cl)c(F)c1)NC12CC(c3nnc(C4CCC4)o3)(C1)C2 [Example 25, 2-(4-chloro-3-fluoro-phenoxy)-N-[1-(5-cyclobutyl-1,3,4-oxadiazol-2-yl)-3-bicyclo[1.1.1]pentanyl]acetamide] | 
< 1000 | O=C(CO[C@H]1C[C@@H](OC(F)(F)F)C1)NC12CC(n3cnc(-c4cccc(F)c4)c3)(C1)C2 [Example 137] | 
< 1000 | O=C(COc1ccc(Br)cc1)NC12CC(c3nnc([C@H]4C[C@@H](OC(F)(F)F)C4)o3)(C1)C2 [Example 163] | IC50 [2, 3]: 8.5 nM
< 1000 | O=C(COc1ccc(Cl)c(F)c1)NC12CC(c3nnc(CC4CCC4)o3)(C1)C2 [Example 38, 2-(4-chloro-3-fluoro-phenoxy)-N-[1-[5-(cyclobutylmethyl)-1,3,4-oxadiazol-2-yl]-3-bicyclo[1.1.1]pentanyl]acetamide] | 
< 1000 | N#C[C@H]1C[C@H](n2ncc(C34CC(NC(=O)COc5ccc(Cl)c(F)c5)(C3)C4)n2)C1 [Example 33, 2-(4-chloro-3-fluorophenoxy)-N-(3-(2-((trans)-3-cyanocyclobutyl)-2H-1,2,3-triazol-4-yl)bicyclo[1.1.1]pentan-1-yl)acetamide] | 
